For the data set the following is noted: 101 kPa, Liquid, Pendant drop method.

The values that follow come from the NIST ThermoML archive (doi:10.1016/j.fluid.2010.02.022).

± gives the expanded uncertainty stated by the source.

Regarding `CCCCCCCCn1cc[n+](C)c1.O=S(=O)([N-]S(=O)(=O)C(F)(F)F)C(F)(F)F` + CCCCCC, the interfacial tension reads like this: (293 K) 3.12 ± 0.11 mN/m; (298 K) 3.07 ± 0.11 mN/m; (303 K) 3.02 ± 0.11 mN/m; (308 K) 2.95 ± 0.11 mN/m; (313 K) 2.88 ± 0.11 mN/m.

For the compound `CCCCCC[n+]1ccn(C)c1.O=S(=O)([N-]S(=O)(=O)C(F)(F)F)C(F)(F)F` + CCCCCC, the interfacial tension runs as follows: (293 K) 5.19 ± 0.14 mN/m; (298 K) 5.1 ± 0.13 mN/m; (303 K) 4.99 ± 0.13 mN/m; (308 K) 4.88 ± 0.13 mN/m; (313 K) 4.79 ± 0.13 mN/m.

For `CCCC[n+]1ccn(C)c1.O=S(=O)([N-]S(=O)(=O)C(F)(F)F)C(F)(F)F` + CCCCCC, the interfacial tension (293 K) came out at 7.78 ± 0.17 mN/m; the interfacial tension (298 K) came to 7.64 ± 0.17 mN/m; the interfacial tension (303 K) was 7.5 ± 0.17 mN/m; the interfacial tension (308 K) worked out at 7.37 ± 0.16 mN/m; the interfacial tension (313 K) worked out at 7.24 ± 0.16 mN/m.

`CCn1cc[n+](C)c1.O=S(=O)([N-]S(=O)(=O)C(F)(F)F)C(F)(F)F` + CCCCCC: the interfacial tension reads like this: (293 K) 11.36 ± 0.22 mN/m; (298 K) 11.23 ± 0.22 mN/m; (303 K) 11.12 ± 0.22 mN/m; (308 K) 10.98 ± 0.22 mN/m; (313 K) 10.82 ± 0.21 mN/m.

Consider `CCCCCCCCn1cc[n+](C)c1.O=S(=O)([N-]S(=O)(=O)C(F)(F)F)C(F)(F)F` + CCCCCCCC, for which the interfacial tension was 3.76 ± 0.1 mN/m (293 K); 3.69 ± 0.1 mN/m (298 K); 3.6 ± 0.1 mN/m (303 K); 3.49 ± 0.1 mN/m (308 K); 3.38 ± 0.1 mN/m (313 K).

On to `CCCCCC[n+]1ccn(C)c1.O=S(=O)([N-]S(=O)(=O)C(F)(F)F)C(F)(F)F` + CCCCCCCC, for which the interfacial tension reads like this: (293 K) 5.79 ± 0.11 mN/m; (298 K) 5.66 ± 0.11 mN/m; (303 K) 5.5 ± 0.11 mN/m; (308 K) 5.36 ± 0.11 mN/m; (313 K) 5.24 ± 0.11 mN/m.

Turning to `CCCC[n+]1ccn(C)c1.O=S(=O)([N-]S(=O)(=O)C(F)(F)F)C(F)(F)F` + CCCCCCCC, the interfacial tension by setting is: (293 K) 8.78 ± 0.11 mN/m; (298 K) 8.6 ± 0.11 mN/m; (303 K) 8.43 ± 0.11 mN/m; (308 K) 8.25 ± 0.11 mN/m; (313 K) 8.1 ± 0.11 mN/m.

In the case of `CCn1cc[n+](C)c1.O=S(=O)([N-]S(=O)(=O)C(F)(F)F)C(F)(F)F` + CCCCCCCC, the interfacial tension was 12.23 ± 0.13 mN/m (293 K); 12.1 ± 0.13 mN/m (298 K); 11.84 ± 0.12 mN/m (303 K); 11.7 ± 0.12 mN/m (308 K); 11.43 ± 0.12 mN/m (313 K).

On to `CCCCCCCCn1cc[n+](C)c1.O=S(=O)([N-]S(=O)(=O)C(F)(F)F)C(F)(F)F` + CCCCCCCCCC, for which the interfacial tension was found to be 3.98 ± 0.1 mN/m (293 K); 3.88 ± 0.1 mN/m (298 K); 3.76 ± 0.1 mN/m (303 K); 3.63 ± 0.1 mN/m (308 K); 3.51 ± 0.1 mN/m (313 K).

Turning to `CCCCCC[n+]1ccn(C)c1.O=S(=O)([N-]S(=O)(=O)C(F)(F)F)C(F)(F)F` + CCCCCCCCCC, the interfacial tension by setting is: (293 K) 6.59 ± 0.11 mN/m; (298 K) 6.47 ± 0.11 mN/m; (303 K) 6.36 ± 0.11 mN/m; (308 K) 6.24 ± 0.11 mN/m; (313 K) 6.11 ± 0.11 mN/m.

As for `CCCC[n+]1ccn(C)c1.O=S(=O)([N-]S(=O)(=O)C(F)(F)F)C(F)(F)F` + CCCCCCCCCC, the interfacial tension (293 K) is 9.43 ± 0.12 mN/m; the interfacial tension (298 K) stood at 9.33 ± 0.12 mN/m; the interfacial tension (303 K) is 9.21 ± 0.12 mN/m; the interfacial tension (308 K) is 9.1 ± 0.12 mN/m; the interfacial tension (313 K) is on record as 8.99 ± 0.12 mN/m.

For `CCn1cc[n+](C)c1.O=S(=O)([N-]S(=O)(=O)C(F)(F)F)C(F)(F)F` + CCCCCCCCCC, the interfacial tension (293 K) was 12.87 ± 0.14 mN/m; the interfacial tension (298 K) is 12.75 ± 0.14 mN/m; the interfacial tension (303 K) came out at 12.64 ± 0.14 mN/m; the interfacial tension (308 K) was 12.52 ± 0.14 mN/m; the interfacial tension (313 K) was determined as 12.41 ± 0.14 mN/m.

`CCCCCCCCCCn1cc[n+](C)c1.O=S(=O)([N-]S(=O)(=O)C(F)(F)F)C(F)(F)F` + O: the interfacial tension amounted to 17.71 ± 0.14 mN/m (293 K); 17.41 ± 0.14 mN/m (298 K); 17.09 ± 0.14 mN/m (303 K); 16.75 ± 0.13 mN/m (308 K); 16.41 ± 0.13 mN/m (313 K); 16.05 ± 0.13 mN/m (318 K). For the same compound, under “323 K”, the interfacial tension stood at 15.66 ± 0.13 mN/m.

As for `CCCCCCCCn1cc[n+](C)c1.O=S(=O)([N-]S(=O)(=O)C(F)(F)F)C(F)(F)F` + O, the interfacial tension is, setting by setting: (293 K) 16.47 ± 0.14 mN/m; (298 K) 15.79 ± 0.13 mN/m; (303 K) 15.67 ± 0.13 mN/m; (308 K) 15.37 ± 0.13 mN/m; (313 K) 15.06 ± 0.13 mN/m; (318 K) 14.61 ± 0.13 mN/m. For the setting “323 K”, the interfacial tension was found to be 14.44 ± 0.13 mN/m.

On to `CCCCCC[n+]1ccn(C)c1.O=S(=O)([N-]S(=O)(=O)C(F)(F)F)C(F)(F)F` + O, for which the interfacial tension reads like this: (293 K) 15.39 ± 0.13 mN/m; (298 K) 14.82 ± 0.13 mN/m; (303 K) 14.49 ± 0.13 mN/m; (308 K) 14.17 ± 0.13 mN/m; (313 K) 14.01 ± 0.12 mN/m; (318 K) 13.78 ± 0.12 mN/m. Besides, for the setting “323 K”, the interfacial tension is 13.45 ± 0.12 mN/m.

For `CCCC[n+]1ccn(C)c1.O=S(=O)([N-]S(=O)(=O)C(F)(F)F)C(F)(F)F` + O, the interfacial tension came to 13.69 ± 0.12 mN/m (293 K); 13.2 ± 0.12 mN/m (298 K); 12.57 ± 0.12 mN/m (303 K); 12.31 ± 0.12 mN/m (308 K); 11.62 ± 0.12 mN/m (313 K); 11.4 ± 0.12 mN/m (318 K). For the same compound, the interfacial tension (323 K) worked out at 11.07 ± 0.12 mN/m.

`CCn1cc[n+](C)c1.O=S(=O)([N-]S(=O)(=O)C(F)(F)F)C(F)(F)F` + O: the interfacial tension (293 K) is listed as 10.04 ± 0.11 mN/m; the interfacial tension (298 K) turned out to be 9.85 ± 0.11 mN/m; the interfacial tension (303 K) was 9.51 ± 0.11 mN/m; the interfacial tension (308 K) is given as 9.29 ± 0.11 mN/m; the interfacial tension (313 K) is on record as 9.05 ± 0.11 mN/m; the interfacial tension (318 K) is 8.79 ± 0.11 mN/m. The interfacial tension (323 K) is given as 8.61 ± 0.11 mN/m.

As for `Cn1cc[n+](C)c1.O=S(=O)([N-]S(=O)(=O)C(F)(F)F)C(F)(F)F` [1,3-dimethylimidazolium bis((trifluoromethyl)sulfonyl)amide] + O, the interfacial tension by setting is: (298 K) 8.05 ± 0.11 mN/m; (303 K) 7.83 ± 0.11 mN/m; (308 K) 7.49 ± 0.11 mN/m; (313 K) 7.14 ± 0.11 mN/m; (318 K) 6.82 ± 0.11 mN/m; (323 K) 6.52 ± 0.11 mN/m.

Regarding `CCCCn1cc[n+](C)c1.O=C([O-])C(F)(F)F` [1-butyl-3-methylimidazolium trifluoroacetate] + CCCCCC, the interfacial tension (293 K) was determined as 8.74 ± 0.18 mN/m; the interfacial tension (298 K) was found to be 8.58 ± 0.18 mN/m; the interfacial tension (303 K) was 8.43 ± 0.18 mN/m; the interfacial tension (308 K) was determined as 8.29 ± 0.18 mN/m; the interfacial tension (313 K) is on record as 8.16 ± 0.17 mN/m.

On to `CCCCn1cc[n+](C)c1.O=C([O-])C(F)(F)F` [1-butyl-3-methylimidazolium trifluoroacetate] + CCCCCCCC, for which the interfacial tension by setting is: (293 K) 9.38 ± 0.12 mN/m; (298 K) 9.29 ± 0.12 mN/m; (303 K) 9.21 ± 0.12 mN/m; (308 K) 9.11 ± 0.12 mN/m; (313 K) 8.98 ± 0.11 mN/m.

Take `CCCCn1cc[n+](C)c1.O=C([O-])C(F)(F)F` [1-butyl-3-methylimidazolium trifluoroacetate] + CCCCCCCCCC: the interfacial tension by setting is: (293 K) 10.52 ± 0.13 mN/m; (298 K) 10.41 ± 0.13 mN/m; (303 K) 10.29 ± 0.13 mN/m; (308 K) 10.16 ± 0.13 mN/m; (313 K) 10.04 ± 0.13 mN/m.

For the compound `CCCCn1cc[n+](C)c1.O=S(=O)([O-])C(F)(F)F` [1-butyl-3-methylimidazolium trifluoromethanesulfonate] + CCCCCC, the interfacial tension by setting is: (293 K) 9.07 ± 0.19 mN/m; (298 K) 8.9 ± 0.19 mN/m; (303 K) 8.74 ± 0.18 mN/m; (308 K) 8.58 ± 0.18 mN/m; (313 K) 8.43 ± 0.18 mN/m.

Take `CCCCn1cc[n+](C)c1.O=S(=O)([O-])C(F)(F)F` [1-butyl-3-methylimidazolium trifluoromethanesulfonate] + CCCCCCCC: the interfacial tension (293 K) was found to be 9.96 ± 0.12 mN/m; the interfacial tension (298 K) is on record as 9.88 ± 0.12 mN/m; the interfacial tension (303 K) stood at 9.79 ± 0.12 mN/m; the interfacial tension (308 K) came out at 9.7 ± 0.12 mN/m; the interfacial tension (313 K) amounted to 9.59 ± 0.12 mN/m.
